Data reported in article PMC5459853, “Cathepsin S inhibition combines control of systemic and peripheral pathomechanisms of autoimmune tissue injury” (Scientific Reports, 2017).
Read-outs that look alike come from different tables or passages of the source.

Assays:
Human Cat-L = Human Cat-L (Homo sapiens, UniProt P07711); assay: Enzymatic isoform-selectivity assay, Cat-L; assay type: biochemical
Description: RO5459072 was provided by F. Hoffmann-La Roche, Ltd., Basel, Switzerland. It is a competitive inhibitor of the active site of Cat-S and its nitrile function allows covalent reversible inhibition of Cat-S. The synthesis of RO5459072 has been described in WO 2010121918 and WO 2013068434. Recombinant cathepsins were produced in-house or were purchased from commercial vendors. Initial enzymatic assays to determine isoform-selectivity in vitro were performed as previously described, [23]. […] For this the Cat-S-dependent hydrolysis of the fluorogenic substrate Z-Phe-Arg-AMC (Sigma Aldrich) was followed at various inhibitor concentrations. The active fraction of Cat-S was detemined as 70% with a HPLC assay measuring modification of Cat-S with the covalent inhibitor LHVS. The buffer (100 mM potassium phosphate, 50 mM NaCl, 5 mM EDTA, 5 mM TCEP, pH 6) was thoroughly degassed prior to perfoming measurements to prevent oxidation of the catalytic cystein residue by dissolved oxygen. For the Ki-determination the substrate was employed at 10 µM = KM. All kinetic measurements were performad on a SFM-3000 stopped-flow instrument (Bio-Logic Science Instruments) and data were analyzed with GraphPad Prism v5.

[1] = Plasma exposure on food admix (HPLC-MS/MS) and spleen p10; assay type: in vivo, MRL-(Fas)lpr mice
Description: Four-week-old female MRL-(Fas)lpr mice were purchased from Harlan Winkelmann (Borchen, Germany) and kept under pathogen-free conditions in a 12 hour light and dark cycle with free access to food and water. All animal experiments were performed in accordance with the European protection laws of animal welfare, and with approval by the local government authorities Regierung von Oberbayern (reference number: 55.2.1-54-2532.2-11-12). At 11 or 15 weeks of age only mice with proteinuria (Albustix, Bayer AG, Leverkusen, Germany) were randomized into five different groups (n = 10) receiving different medicated diets: Three groups were fed with chow mixed with either 3, 10 or 30 mg/kg/day RO5459072, another group’s chow was mixed with 100 mg/kg/day mycophenolate mofetil (MMF), and one group received a standard diet (vehicle). The dose of MMF was chosen according to several studies reporting strong efficacy on SLE and lupus nephritis in MRL-(Fas)lpr mice[24]–[26]. […] At the age of 19 weeks all mice were sacrificed by cervical dislocation. Blood and urine samples were collected at different time points as indicated. In other experiments 7 week old female MRL-(Fas)lpr mice were randomized into three groups (n = 3) to receive a single intravenous injection of 10 µg sterile recombinant Cat-S and one group receiving vehicle (100 µl sterile PBS). One of the Cat-S groups was pretreated with 30 mg/kg/day RO5459072 starting one week prior to Cat-S injection; another group was pretreated with a total of four daily intra-peritoneal injections of the PAR-2 inhibitor GB83 (10 mg/kg).
Plasma samples were collected from mice during the feeding cycle on weeks 2, 4, 6 and 8 on a variable schedule of individuals after initiation of feeding with the drug-food admix on week 1. The levels in food were calculated to achieve doses of 3, 10 and 30 mg/kg/day. EDTA-treated plasma samples (29 per dose level) were frozen and subsequently analysed for the parent drug by HPLC-MS/MS. A column-trapping method (Phenonenex Luna C18 and Thermo Hypersil Gold C8 HPLC columns eluted with formic acid/water/acetonitrile mixtures on a Waters Acquity HPLC system) was used to separate the drug which was quantified using a Sciex API4000 MS/MS. The analytical range was 10–10,000 ng/ml and a stable label internal standard was used. […] All experiments were performed according to German animal protection laws and had been approved by the local government authorities.

[2] = biological target: T1, Cat-S in human purified B-cells (Homo sapiens, UniProt P25774); assay: lip10 (p10) accumulation assay in human purified B-cells (p10 ELISA); assay type: cell-based
T1 construct: Human B-cells were isolated from whole blood; endogenous in cells; host or cells: primary human CD19+ B cells from whole blood of healthy volunteers
T1 sequence (P25774 115-331): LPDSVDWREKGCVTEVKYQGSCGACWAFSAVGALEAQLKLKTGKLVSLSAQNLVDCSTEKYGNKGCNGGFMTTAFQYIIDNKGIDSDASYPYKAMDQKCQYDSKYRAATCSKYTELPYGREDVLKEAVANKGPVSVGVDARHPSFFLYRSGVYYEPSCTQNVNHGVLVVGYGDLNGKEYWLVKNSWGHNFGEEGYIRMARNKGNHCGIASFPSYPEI
Description: Human B-cells were isolated from whole blood using the Whole Blood CD19 Microbeads (Cat#130-090-880, Milteny) with the Whole Blood Column Kit (130-093-545, Milteny) according to the instruction leaflet. Isolated B-cells were adjusted to a cell density of 1 × 10^6 cells/ml in RPMI medium containing 10% FCS and 0.05 mM β-Mercaptoethanol (media and supplements are from Gibco). For each condition 100 µl of cell suspension was transferred into one well of a 96 well cell culture plate, respectively. For detection of p10, cells were treated with different concentrations of RO5459072 for 16 h in a cell culture incubator (37 °C; 5% CO2). Afterwards cells were lysed by adding 100 µl 2x NP-40 lysis buffer (20 mM Tris pH 8.0; 137 mM NaCl; 10% glycerol; 1% NP-40; 2 mM EDTA) containing HALT Protease inhibitor (Cat#78429, Pierce) for 30 min on ice. Before detection of accumulated p10-MHC-II complexes, interfering Ii-MHC-II associates were removed from the cell lysates. […] The CD74-18/3 antibody detects uncleaved invariant chain MHC-II complexes only. Afterwards p10-MHC-II complexes were analyzed by ELISA. For this purpose black Maxisorp plates from NUNC have been coated o/n with PIN.1 (5 µg/ml) from abcam (Cat#ab22603). The next day plates were blocked with blocking buffer for 1 h at 37 °C. Lysates containing 25,000 B-cells per condition were transferred to each well of the ELISA plate respectively and incubated together with the secondary antibody CD74-3/5-Biotin (15 ng/ml) o/n at 4 °C on a shaker. For signal amplification samples were incubated for 30 min with High Sensitive Streptavidin-HRP, 50 ng/ml (Cat#21134, Pierce). The amount of p10 was detected after 30 min of incubation with the QuantaBluTM Fluorogenic Substrate (Cat#15162, Pierce) at 325 nm excitation and 420 nm emission. In between each procedure of the ELISA assay the plates were washed twice with PBS−/− containing 0.05% TWEEN-20.
Supplementary figure 1. Biochemical and pharmacological profile of R05459072. (A)
Upregulation of invariant chain p10 levels in human B-cells was estimated by p10 ELISA, upon
treatment with increasing concentration of RO5459072.
upregulation in B-cells derived from 6 healthy volunteers. […]

Sequence of Human Cat-L (P07711 114-333): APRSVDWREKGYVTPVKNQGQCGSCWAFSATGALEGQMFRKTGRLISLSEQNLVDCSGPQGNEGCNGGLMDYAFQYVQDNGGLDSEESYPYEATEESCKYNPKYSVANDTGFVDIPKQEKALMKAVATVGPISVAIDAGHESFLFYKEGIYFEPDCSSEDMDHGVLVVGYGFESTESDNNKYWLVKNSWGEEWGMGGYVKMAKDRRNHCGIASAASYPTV

IC50 (Human Cat-L): > 1 µM | IC50, Human Cat-L (Human Cat-L): No sub-micro molar inhibition | mean plasma concentration (SD) ([1]; 3 mg/kg/day food admix): 172 ± 58.4 ng/mL | mean plasma concentration (SD) ([1]; 10 mg/kg/day food admix): 648 ± 142 ng/mL | mean plasma concentration (SD) ([1]; 30 mg/kg/day food admix): 2660 ± 575 ng/mL | concentration at 8 weeks ([1]; mouse, plasma, oral, food admix 262 mg/kg of food, exposure dose 30 mg/kg, over 8 weeks, female MRL-(Fas)lpr mice, read-out: stable plasma levels): 400 to 600 ng/mL | EC50 ([2]; average of 6 healthy volunteers, 16 h treatment, read-out: EC50 of lip10 (p10) induction in human B-cells, average): 0.0158 µM | EC50 ([2]; donor D1, read-out: EC50 of p10 upregulation in human B-cells, donor D1): 0.0264 µM | EC50 ([2]; donor D2, read-out: EC50 of p10 upregulation in human B-cells, donor D2): 0.0158 µM | EC50 ([2]; donor D3, read-out: EC50 of p10 upregulation in human B-cells, donor D3): 0.0191 µM | EC50 ([2]; donor D4, read-out: EC50 of p10 upregulation in human B-cells, donor D4): 0.0094 µM | EC50 ([2]; donor D5, read-out: EC50 of p10 upregulation in human B-cells, donor D5): 0.0126 µM | EC50 ([2]; donor D6, read-out: EC50 of p10 upregulation in human B-cells, donor D6): 0.0115 µM
Compound: Cn1cc(-c2ccc(S(=O)(=O)[C@@H]3C[C@@H](C(=O)NC4(C#N)CC4)N(C(=O)C4(C(F)(F)F)CC4)C3)c(C(F)(F)F)c2)cn1 [RO5459072]
p10 fragment accumulation in the spleen ([1]; food admix, MRL-(Fas)lpr mice): robust p10 fragment accumulation
